Measurements reported in patent US9624238B2, “4H-thieno[3,2-C]chromene-based inhibitors of Notum Pectinacetylesterase and methods of their use” (Lexicon Pharmaceuticals, Inc., priority 2011, dated 2017).

Key:
[1] = target: T1, human notum pectinacetyltransferase (Homo sapiens, UniProt Q6P988); experiment: Reporter assay (CellSensor LEF/TCF-bla FreeStyle 293F cells, Wnt3a and notum conditioned media); assay type: cell-based
T1 construct: made in house; unpurified conditioned medium used
T1 sequence (Q6P988 20-496): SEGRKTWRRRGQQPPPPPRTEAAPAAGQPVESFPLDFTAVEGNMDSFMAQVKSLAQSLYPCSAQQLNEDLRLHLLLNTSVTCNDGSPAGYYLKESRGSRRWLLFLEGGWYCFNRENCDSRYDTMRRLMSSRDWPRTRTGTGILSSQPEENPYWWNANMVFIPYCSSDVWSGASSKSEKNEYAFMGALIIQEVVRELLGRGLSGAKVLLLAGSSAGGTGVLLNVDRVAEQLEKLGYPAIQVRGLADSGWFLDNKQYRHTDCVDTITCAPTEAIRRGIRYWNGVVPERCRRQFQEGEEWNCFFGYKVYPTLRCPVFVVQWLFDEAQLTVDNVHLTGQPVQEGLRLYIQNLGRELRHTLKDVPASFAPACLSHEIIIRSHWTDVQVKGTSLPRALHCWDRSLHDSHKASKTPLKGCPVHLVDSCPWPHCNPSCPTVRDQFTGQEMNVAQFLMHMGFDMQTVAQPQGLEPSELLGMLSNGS

[2] = target: T1, human notum pectinacetyltransferase; experiment: Binding assay (OPTS esterase substrate, fluorimetric); assay type: biochemical
Protocol: Plasmid containing human notum pectinacetyltransferase in pcDNA3.1(+) vector was transfected into HEK (293 cells and clones were selecting by growing in presence of 400 ug/mL of G418. Condition media from these cells was used for the assay.

[3] = given as numeric bound above the legend's highest class
[4] = given as a numeric bound above the legend's range

| EC50 ([1]; class symbols) [nM] | IC50 ([2]; class symbols) [nM] | SMILES | other results |
| --- | --- | --- | --- |
| < 50 | < 1000 | O=C(O)C1CCN(C(=O)c2cc3c(s2)-c2cc(F)cc(F)c2SC3)C1 (stereo not drawn) |  |
| < 50 | < 50 | O=C1CCN(C(=O)c2cc3c(s2)-c2cc(F)cc(F)c2SC3)C1 |  |
| < 50 | < 50 | NC(=O)c1cc2c(s1)-c1ccsc1CC2 |  |
| < 500 | < 50 | O=C(O)c1cc2c(s1)-c1ccsc1CC2 |  |
| < 50 | < 50 | NC(=O)c1cc2c(s1)-c1ccccc1SCC2 |  |
| < 1000 |  | O=C(O)c1cc2c(s1)-c1ccccc1S(=O)(=O)CC2 | IC50 [2, 3]: > 2000 nM |
| < 100 |  | O=C(O)c1cc2c(s1)-c1ccccc1SCC2 | IC50 [2, 3]: > 2000 nM |
| < 50 | < 50 | COc1ccc2c(c1Br)CCc1cc(C(N)=O)sc1-2 |  |
| < 50 | < 1000 | NC(=O)c1cc2c(s1)-c1cccc(Cl)c1SC2 |  |
| < 50 | < 2000 | O=C(O)c1cc2c(s1)-c1cccc(Cl)c1SC2 |  |
| < 50 | < 50 | O=C(O)c1cc2c(s1)-c1cc(F)cc(Cl)c1SC2 |  |
| < 50 | < 100 | NC(=O)c1cc2c(s1)-c1cc(F)cc(Cl)c1SC2 |  |
| < 50 | < 50 | NC(=O)c1cc2c(s1)-c1cccc(F)c1CC2 |  |
| < 50 | < 50 | O=C(O)c1cc2c(s1)-c1cccc(F)c1CC2 |  |
| < 50 | < 100 | COc1ccc2c(c1F)CCc1cc(C(=O)O)sc1-2 |  |
| < 500 |  | COc1cccc2c1OCc1cc(C(=O)O)sc1-2 | IC50 [2, 4]: > 2000 nM |
| < 1000 |  | COc1cccc2c1S(=O)(=O)Cc1cc(C(=O)O)sc1-2 | IC50 [2, 4]: > 2000 nM |
| < 50 |  | COc1cccc2c1CCc1cc(C(=O)O)sc1-2 | IC50 [2, 3]: > 2000 nM |
| < 50 | < 100 | NC(=O)c1cc2c(s1)-c1ccc(Cl)c(Cl)c1SC2 |  |
| < 50 | < 100 | O=C(O)c1cc2c(s1)-c1ccc(Cl)c(Cl)c1SC2 |  |
| < 50 | < 50 | NC(=O)c1cc2c(s1)-c1cc(F)c(F)c(F)c1SC2 |  |

| EC50 ([1]; class symbols) [nM] | IC50 ([2]; class symbols) [nM] | SMILES | other results |
| --- | --- | --- | --- |
| < 50 | < 2000 | NC(=O)c1cc2c(s1)-c1cc(Cl)cc(Cl)c1SC2 |  |
| < 50 | < 50 | NC(=O)c1cc2c(s1)-c1cc(F)cc(F)c1SC2 |  |
| < 500 |  | Cc1ccc(C)c2c1-c1sc(C(=O)O)cc1CS2(=O)=O | IC50 [2, 4]: > 2000 nM |
| < 50 |  | Cc1ccc(C)c2c1SCc1cc(C(=O)O)sc1-2 | IC50 [2, 4]: > 2000 nM |
| < 500 | < 50 | O=C(O)c1cc2c(s1)-c1sc(Cl)cc1CC2 |  |
| < 50 | < 50 | NC(=O)c1cc2c(s1)-c1ccc(Cl)c(F)c1OC2 |  |
| < 50 | < 50 | O=C(O)c1cc2c(s1)-c1ccc(Cl)c(F)c1SC2 |  |
| < 50 | < 50 | NC(=O)c1cc2c(s1)-c1ccc(Cl)c(F)c1SC2 |  |
| < 500 |  | COC(C)(C)CNC(=O)c1cc2c(s1)-c1ccc(Cl)c(F)c1OC2 | IC50 [2, 3]: > 2000 nM |
| < 500 |  | O=C(NCCN1CCOCC1)c1cc2c(s1)-c1ccc(Cl)c(F)c1OC2 | IC50 [2, 3]: > 2000 nM |
| < 50 | < 2000 | O=C(O)c1cc2c(s1)-c1cc(F)c(Cl)cc1S(=O)(=O)C2 |  |
| < 50 | < 100 | NC(=O)c1cc2c(s1)-c1cc(F)c(Cl)cc1SC2 |  |
|  |  | N#Cc1ccc2c(c1)OCc1cc(C(N)=O)sc1-2 | EC50 [1, 4]: > 1000 nM; IC50 [2, 4]: > 2000 nM |
| < 1000 |  | N#Cc1ccc2c(c1)CCc1cc(C(=O)O)sc1-2 | IC50 [2, 3]: > 2000 nM |
| < 100 | < 1000 | COc1ccc2c(c1)OCc1cc(C(N)=O)sc1-2 |  |
| < 100 | < 2000 | COc1ccc2c(c1)OCc1cc(C(=O)O)sc1-2 |  |
| < 50 | < 2000 | NC(=O)c1cc2c(s1)-c1ccc(Cl)c(Cl)c1OCC2 |  |
| < 50 | < 50 | O=C(O)c1cc2c(s1)-c1ccc(Cl)c(Cl)c1OCC2 |  |
| < 50 | < 100 | NC(=O)c1cc2c(s1)-c1cc(F)c(F)cc1OC2 |  |
| < 50 | < 100 | O=C(O)c1cc2c(s1)-c1cc(F)c(F)cc1OC2 |  |
| < 50 |  | Cc1cc(C)c2c(c1)OCc1cc(C(=O)O)sc1-2 | IC50 [2, 4]: > 2000 nM |

| EC50 ([1]; class symbols) [nM] | IC50 ([2]; class symbols) [nM] | SMILES | other results |
| --- | --- | --- | --- |
| < 50 | < 1000 | NC(=O)c1cc2c(s1)-c1cc(Br)ccc1OC2 |  |
| < 50 | < 100 | O=C(O)c1cc2c(s1)-c1cc(Br)ccc1OC2 |  |
| < 500 |  | NC(=O)c1cc2c(s1)-c1cc(Cl)c(C(F)(F)F)cc1OC2 | IC50 [2, 4]: > 2000 nM |
| < 1000 | < 50 | O=C(O)c1cc2ccc3scc(Cl)c3c2s1 |  |
| < 1000 |  | N#Cc1ccc2c(c1)-c1sc(C(=O)O)cc1CC2 | IC50 [2, 3]: > 2000 nM |
| < 100 |  | N#Cc1cc2c(cc1F)OCc1cc(C(=O)O)sc1-2 | IC50 [2, 4]: > 2000 nM |
|  |  | COc1cc2c(cc1C#N)-c1sc(C(=O)O)cc1CC2 | EC50 [1, 4]: > 1000 nM; IC50 [2, 4]: > 2000 nM |
| < 50 | < 1000 | Cc1cc(F)cc2c1SCc1cc(C(=O)O)sc1-2 |  |
| < 50 | < 100 | Cc1cc2c(cc1F)-c1sc(C(=O)O)cc1CS2 |  |
| < 1000 |  | CC(C)c1ccc2c(c1)-c1sc(C(N)=O)cc1CO2 | IC50 [2, 4]: > 2000 nM |
| < 100 |  | CC(C)c1ccc2c(c1)-c1sc(C(=O)O)cc1CO2 | IC50 [2, 4]: > 2000 nM |
| < 500 |  | COc1ccc2c(c1)-c1sc(C(=O)O)cc1CS2(=O)=O | IC50 [2, 4]: > 2000 nM |
| < 500 |  | COc1ccc2c(c1)-c1sc(C(=O)O)cc1CC2 | IC50 [2, 3]: > 2000 nM |
| < 500 |  | COCCNC(=O)c1cc2c(s1)-c1cc(F)ccc1OCC2 | IC50 [2, 3]: > 2000 nM |
| < 500 |  | O=C(NCCn1ccnc1)c1cc2c(s1)-c1cccc(F)c1CC2 | IC50 [2, 4]: > 2000 nM |
| < 500 |  | COCCNC(=O)c1cc2c(s1)-c1ccccc1CCC2 | IC50 [2, 3]: > 2000 nM |
| < 50 |  | O=C(NC1CC1)c1cc2c(s1)-c1ccccc1CC2 | IC50 [2, 4]: > 2000 nM |
| < 50 | < 1000 | CN(C)C(=O)c1cc2c(s1)-c1ccccc1CC2 |  |
| < 100 | < 1000 | O=C(c1cc2c(s1)-c1cc(F)cc(F)c1SC2)N1CCCC1CO (stereo not drawn) |  |
| < 50 | < 50 | O=C(c1cc2c(s1)-c1cc(F)cc(F)c1SC2)N1CCC(O)C1 (stereo not drawn) |  |
| < 50 | < 100 | COC1CCN(C(=O)c2cc3c(s2)-c2cc(F)cc(F)c2SC3)C1 (stereo not drawn) |  |

| EC50 ([1]; class symbols) [nM] | IC50 ([2]; class symbols) [nM] | SMILES | other results |
| --- | --- | --- | --- |
| < 50 | < 1000 | O=C(c1cc2c(s1)-c1cc(F)cc(F)c1SC2)N1CC[C@H](F)C1 |  |
| < 50 | < 100 | O=C(c1cc2c(s1)-c1c(F)ccc(F)c1SC2)N1CC[C@H](F)C1 |  |
| < 50 | < 1000 | O=C(c1cc2c(s1)-c1cc(F)c(Cl)cc1SC2)N1CC[C@H](F)C1 |  |
| < 500 |  | CCOC(=O)c1cc2c(s1)-c1cccc(OC)c1CC2 | IC50 [2, 3]: > 2000 nM |
| < 100 | < 1000 | CCOC(=O)c1cc2c(s1)-c1ccc(Cl)c(F)c1SC2 |  |
|  |  | CCOC(=O)c1cc2c(s1)-c1cc(OC)ccc1CC2 | EC50 [1, 3]: > 1000 nM; IC50 [2, 3]: > 2000 nM |
| < 50 | < 100 | O=C(O)C1CCN(C(=O)c2cc3c(s2)-c2c(F)ccc(F)c2SC3)C1 (stereo not drawn) |  |
| < 50 | < 1000 | COC(=O)C1CCN(C(=O)c2cc3c(s2)-c2cc(F)cc(F)c2SC3)C1 (stereo not drawn) |  |
| < 50 | < 50 | O=C(O)C1CN(C(=O)c2cc3c(s2)-c2ccc(Cl)c(Cl)c2OC3)CC1c1ccccc1F (racemic) |  |
| < 100 | < 1000 | Cc1cc(C)c2c(c1)-c1sc(C(=O)NCC(=O)O)cc1CC2 [2-(6,8-dimethyl-4,5-dihydronaphtho[1,2-b]thiophene-2-carboxamido)acetic acid] |  |
| < 50 | < 1000 | Nc1c(C(=O)O)sc2c1CSc1ccccc1-2 [3-amino-4H-thieno[3,2-c]thiochromene-2-carboxylic acid] |  |
| < 50 | < 50 | NC(=O)c1cc2c(s1)-c1ccccc1OC2 [4H-thieno[3,2-c]chromene-2-carboxamide] |  |
| < 500 | < 1000 | O=C(O)c1cc2c(s1)-c1cc(F)cc(F)c1S(=O)(=O)C2 [6,8-difluoro-4H-thieno[3,2-c]thiochromene-2-carboxylic acid 5,5-dioxide] |  |
| < 500 |  | O=C(O)c1cc2c(s1)-c1cc(F)cc(F)c1[S+]([O-])C2 (stereo not drawn) [6,8-difluoro-4H-thieno[3,2-c]thiochromene-2-carboxylic acid 5-oxide] | IC50 [2, 3]: > 2000 nM |
| < 50 | < 1000 | Cc1cc(C)c2c(c1)-c1sc(C(N)=O)cc1CC2 [6,8-dimethyl-4,5-dihydronaphtho[1,2-b]thiophene-2-carboxamide] |  |
| < 50 | < 50 | NC(=O)c1cc2c(s1)-c1c(F)ccc(F)c1SC2 [6,9-difluoro-4H-thieno[3,2-c]thiochromene-2-carboxamide] |  |
| < 50 | < 1000 | O=C(O)c1cc2c(s1)-c1cccc(F)c1OC2 [6-fluoro-4H-thieno[3,2-c]chromene-2-carboxylic acid] |  |
| < 50 | < 50 | NC(=O)c1cc2c(s1)-c1c(F)cc(F)cc1OC2 [7,9-difluoro-4H-thieno[3,2-c]chromene-2-carboxamide] |  |
